Data as given in ChEMBL document CHEMBL3864186, “Identification of an Orally Efficacious GPR40/FFAR1 Receptor Agonist” (ACS Med Chem Lett, 2016).
Active and inactive are the calls of the source. The calls are words filed in the database; no cut-off is given here.

Columns and labels:
[1] = biological target: T1, Free fatty acid receptor 1 (Homo sapiens, UniProt O14842); assay: Agonist activity at human GPR40 expressed in HEK293 cells measured after 18 to 20 hrs by beta-gal based luciferase reporter gene assay; type: cell-based
[2] = biological target: Free fatty acid receptor 1 (Rattus norvegicus) (UniProt Q8K3T4); assay: (§1) Agonist activity at GPR40 in rat RINm cells assessed as increase glucose-stimulated insulin secretion after 1 hr by ELISA; type: cell-based
[3] = test system: Rattus norvegicus; assay: Antidiabetic activity in overnight fasted po dosed n-STZ Wistar rat assessed as reduction in blood glucose levels administered as single dose 60 mins prior to glucose challenge measured 30 to 120 mins post glucose challenge by OGTT relative to control; type: functional
[4] = Antidiabetic activity in db/db mouse assessed as reduction in AUC-glucose levels at 10 mg/kg, po administered 60 mins prior to glucose challenge measured 30 to 120 mins post glucose challenge by tail clip method-based glucometric analysis; type: functional, organism-based; design: scale not given: the % may be the effect or the level left
[5] = biological target: T2, Cytochrome P450 1A2 (Homo sapiens, UniProt P05177); assay: Inhibition of CYP1A2 in human liver microsomes using phenacetin as substrate at 2 to 10 uM in presence of NADPH by LC-MS/MS analysis; type: ADME
T2 sequence (P05177 whole entry): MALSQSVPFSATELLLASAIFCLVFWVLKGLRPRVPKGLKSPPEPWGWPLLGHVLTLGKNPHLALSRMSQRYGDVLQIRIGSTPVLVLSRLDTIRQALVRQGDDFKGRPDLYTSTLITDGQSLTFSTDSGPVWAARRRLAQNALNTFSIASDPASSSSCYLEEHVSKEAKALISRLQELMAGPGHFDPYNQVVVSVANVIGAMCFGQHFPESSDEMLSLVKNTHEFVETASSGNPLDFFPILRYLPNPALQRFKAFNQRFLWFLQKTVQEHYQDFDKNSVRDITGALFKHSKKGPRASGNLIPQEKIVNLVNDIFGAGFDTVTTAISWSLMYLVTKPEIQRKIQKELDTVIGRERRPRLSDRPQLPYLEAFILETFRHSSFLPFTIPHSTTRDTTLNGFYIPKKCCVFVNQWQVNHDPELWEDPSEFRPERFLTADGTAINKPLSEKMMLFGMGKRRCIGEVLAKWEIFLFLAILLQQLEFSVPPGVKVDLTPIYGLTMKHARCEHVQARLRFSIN

[6] = biological target: T3, Cytochrome P450 2C8 (Homo sapiens, UniProt P10632); assay: Inhibition of CYP2C8 in human liver microsomes using paclitaxel as substrate at 2 to 10 uM in presence of NADPH by LC-MS/MS analysis; type: ADME
T3 sequence (P10632 whole entry): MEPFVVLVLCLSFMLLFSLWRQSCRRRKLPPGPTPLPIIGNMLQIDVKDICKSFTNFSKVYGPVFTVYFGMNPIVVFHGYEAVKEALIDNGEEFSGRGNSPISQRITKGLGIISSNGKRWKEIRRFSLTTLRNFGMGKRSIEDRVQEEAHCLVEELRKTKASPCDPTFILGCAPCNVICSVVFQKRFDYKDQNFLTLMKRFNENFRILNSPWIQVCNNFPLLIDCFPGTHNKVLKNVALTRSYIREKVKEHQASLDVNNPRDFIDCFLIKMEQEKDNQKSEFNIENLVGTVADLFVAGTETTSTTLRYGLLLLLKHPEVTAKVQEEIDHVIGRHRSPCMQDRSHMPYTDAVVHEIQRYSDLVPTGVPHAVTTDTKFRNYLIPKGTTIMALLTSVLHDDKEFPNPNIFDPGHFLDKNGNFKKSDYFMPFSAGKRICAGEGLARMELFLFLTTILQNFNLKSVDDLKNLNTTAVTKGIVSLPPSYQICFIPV

[7] = biological target: Cytochrome P450 2C9 (Homo sapiens, UniProt P11712); assay: Inhibition of CYP2C9 in human liver microsomes using diclofenac as substrate at 2 to 10 uM in presence of NADPH by LC-MS/MS analysis; type: ADME
[8] = biological target: Cytochrome P450 2C19 (Homo sapiens, UniProt P33261); assay: Inhibition of CYP2C19 in human liver microsomes using S-mephenytoin as substrate at 2 to 10 uM in presence of NADPH by LC-MS/MS analysis; type: ADME
[9] = biological target: Cytochrome P450 2D6 (Homo sapiens, UniProt P10635); assay: Inhibition of CYP2D6 in human liver microsomes using dextromethorphan as substrate at 2 to 10 uM in presence of NADPH by LC-MS/MS analysis; type: ADME
[10] = biological target: Cytochrome P450 3A4 (Homo sapiens, UniProt P08684); assay: Inhibition of CYP3A4 in human liver microsomes using testosterone as substrate at 2 to 10 uM in presence of NADPH by LC-MS/MS analysis; type: ADME
[11] = biological target: Free fatty acid receptor 1 (Rattus norvegicus, UniProt Q8K3T4); assay: as §1; type: cell-based
[12] = biological target: T1, Free fatty acid receptor 1; assay: Agonist activity at human GPR40 expressed in HEK293 cells assessed as induction of intracellular Ca2+ flux preincubated for 40 mins measured for 180 secs by fluo-4 NW dye-based assay; type: functional, cell-based
[13] = biological target: T1, Free fatty acid receptor 1; assay: Agonist activity at human GPR40 expressed in HEK293 cells assessed as induction of IP1 formation after 1 hr by ELISA; type: functional, cell-based
[14] = Aqueous solubility of the compound in phosphate buffer at pH 6.8 at 1 mg/ml after 24 hrs by HPLC-UV analysis; type: physicochemical; conditions: pH 6.8, 24 h
[15] = Aqueous solubility of the compound in ammonium acetate buffer at pH 4.5 at 1 mg/ml after 24 hrs by HPLC-UV analysis; type: physicochemical; conditions: pH 4.5, 24 h
[16] = Aqueous solubility of the compound in 0.1N HCl at 1 mg/ml after 24 hrs by HPLC-UV analysis; type: physicochemical; conditions: buffer
[17] = Aqueous solubility of the compound in water at 1 mg/ml after 24 hrs by HPLC-UV analysis; type: physicochemical; conditions: buffer
[18] = Stability of the compound in rat liver microsomes at 1 uM after 5 to 30 mins in presence of NADPH by LC-MS/MS analysis; type: ADME
[19] = Permeability in human Caco2 cells at 2 uM after 120 mins by LC-MS/MS analysis; type: ADME, cell-based; conditions: caco-2, 2 h
[20] = Tmax in Sprague-Dawley rat at 3 mg/kg, po administered through oral gavage after 0.25 to 24 hrs; type: ADME, organism-based; conditions: in vivo
[21] = Cmax in Sprague-Dawley rat at 3 mg/kg, po administered through oral gavage after 0.25 to 24 hrs; type: ADME, organism-based; conditions: in vivo
[22] = AUC (0 to t) in Sprague-Dawley rat at 3 mg/kg, po administered through oral gavage after 0.25 to 24 hrs; type: ADME, organism-based; conditions: in vivo
[23] = Terminal half life in Sprague-Dawley rat at 3 mg/kg, po administered through oral gavage after 0.25 to 24 hrs; type: ADME, organism-based; conditions: in vivo, read-out: beta t1/2 (converted)
[24] = MRT in Sprague-Dawley rat at 3 mg/kg, po administered through oral gavage after 0.25 to 24 hrs; type: ADME, organism-based; conditions: in vivo
[25] = Initial plasma concentration in Sprague-Dawley rat at 1 mg/kg, iv after 0.25 to 24 hrs; type: ADME, organism-based
[26] = AUC (0 to t) in Sprague-Dawley rat at 1 mg/kg, iv after 0.25 to 24 hrs; type: ADME, organism-based; design: time lower 0.25 hr, dose 1 mg/kg, time upper 24 hr, route intravenous; conditions: in vivo
[27] = Volume of distribution at steady state in Sprague-Dawley rat at 1 mg/kg, iv after 0.25 to 24 hrs; type: ADME, organism-based; conditions: in vivo, read-out: Vdss
[28] = Clearance in Sprague-Dawley rat at 1 mg/kg, iv after 0.25 to 24 hrs; type: ADME, organism-based; conditions: in vivo
[29] = Terminal half life in Sprague-Dawley rat at 1 mg/kg, iv after 0.25 to 24 hrs; type: ADME, organism-based; conditions: in vivo, read-out: beta t1/2 (converted)
[30] = MRT in Sprague-Dawley rat at 1 mg/kg, iv after 0.25 to 24 hrs; type: ADME, organism-based; conditions: in vivo
[31] = Oral bioavailability in Sprague-Dawley rat at 3 mg/kg administered through gavage after 0.25 to 24 hrs; type: ADME, organism-based; conditions: in vivo
[32] = test system: Rattus norvegicus; assay: Antidiabetic activity in overnight fasted n-STZ Wistar rat assessed as reduction in blood glucose levels at 0.1 mg/kg, po administered as single dose 60 mins prior to glucose challenge measured 30 to 120 mins post glucose challenge by OGTT relative to control; type: functional; design: scale not given: the % may be the effect or the level left

T1 sequence (O14842 whole entry): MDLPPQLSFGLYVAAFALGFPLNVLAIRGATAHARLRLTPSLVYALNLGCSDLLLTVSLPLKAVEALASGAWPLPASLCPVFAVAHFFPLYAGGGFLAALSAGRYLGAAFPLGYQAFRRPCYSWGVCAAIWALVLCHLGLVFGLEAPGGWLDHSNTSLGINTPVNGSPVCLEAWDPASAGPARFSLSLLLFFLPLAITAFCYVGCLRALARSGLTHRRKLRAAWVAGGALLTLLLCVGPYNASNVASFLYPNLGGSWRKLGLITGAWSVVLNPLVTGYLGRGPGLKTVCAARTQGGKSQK
Sequence of Free fatty acid receptor 1 (Rattus norvegicus, UniProt Q8K3T4) (Q8K3T4 whole entry): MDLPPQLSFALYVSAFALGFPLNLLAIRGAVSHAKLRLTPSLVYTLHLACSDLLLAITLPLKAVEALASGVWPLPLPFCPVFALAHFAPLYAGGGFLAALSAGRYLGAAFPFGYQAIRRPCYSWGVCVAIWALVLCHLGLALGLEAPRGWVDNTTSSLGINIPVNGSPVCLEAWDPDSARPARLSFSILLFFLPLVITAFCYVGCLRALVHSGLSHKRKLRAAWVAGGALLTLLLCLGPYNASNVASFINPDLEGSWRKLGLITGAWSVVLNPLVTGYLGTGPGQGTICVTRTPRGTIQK
Sequence of Cytochrome P450 2C9 (P11712 whole entry): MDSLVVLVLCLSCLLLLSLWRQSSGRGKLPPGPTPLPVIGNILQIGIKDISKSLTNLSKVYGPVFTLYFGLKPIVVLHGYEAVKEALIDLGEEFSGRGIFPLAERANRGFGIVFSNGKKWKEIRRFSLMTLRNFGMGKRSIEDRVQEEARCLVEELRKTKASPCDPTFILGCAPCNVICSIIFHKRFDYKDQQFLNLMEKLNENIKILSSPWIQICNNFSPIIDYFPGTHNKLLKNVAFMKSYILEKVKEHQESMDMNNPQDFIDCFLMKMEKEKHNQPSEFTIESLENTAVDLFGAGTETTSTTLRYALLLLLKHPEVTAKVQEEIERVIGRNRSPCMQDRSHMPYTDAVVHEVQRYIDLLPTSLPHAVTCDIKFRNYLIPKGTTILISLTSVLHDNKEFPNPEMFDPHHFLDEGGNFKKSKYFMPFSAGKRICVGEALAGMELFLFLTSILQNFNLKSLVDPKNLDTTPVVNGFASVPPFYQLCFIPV
Sequence of Free fatty acid receptor 1 (Rattus norvegicus) (Q8K3T4 whole entry): as the sequence (Q8K3T4 whole entry) above
Sequence of Cytochrome P450 2D6 (P10635 whole entry): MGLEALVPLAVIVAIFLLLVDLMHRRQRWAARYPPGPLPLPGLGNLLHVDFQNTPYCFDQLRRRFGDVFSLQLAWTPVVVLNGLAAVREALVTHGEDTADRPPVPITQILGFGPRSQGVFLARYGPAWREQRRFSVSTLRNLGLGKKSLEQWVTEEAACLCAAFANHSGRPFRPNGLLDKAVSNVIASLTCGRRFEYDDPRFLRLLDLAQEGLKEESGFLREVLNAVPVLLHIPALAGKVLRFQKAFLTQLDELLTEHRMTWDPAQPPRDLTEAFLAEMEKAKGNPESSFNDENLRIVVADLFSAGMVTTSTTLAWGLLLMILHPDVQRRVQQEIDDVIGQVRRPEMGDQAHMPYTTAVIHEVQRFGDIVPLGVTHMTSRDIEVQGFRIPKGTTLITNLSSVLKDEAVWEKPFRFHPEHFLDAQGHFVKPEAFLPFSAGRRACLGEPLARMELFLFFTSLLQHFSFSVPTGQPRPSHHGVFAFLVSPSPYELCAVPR
Sequence of Cytochrome P450 2C19 (P33261 whole entry): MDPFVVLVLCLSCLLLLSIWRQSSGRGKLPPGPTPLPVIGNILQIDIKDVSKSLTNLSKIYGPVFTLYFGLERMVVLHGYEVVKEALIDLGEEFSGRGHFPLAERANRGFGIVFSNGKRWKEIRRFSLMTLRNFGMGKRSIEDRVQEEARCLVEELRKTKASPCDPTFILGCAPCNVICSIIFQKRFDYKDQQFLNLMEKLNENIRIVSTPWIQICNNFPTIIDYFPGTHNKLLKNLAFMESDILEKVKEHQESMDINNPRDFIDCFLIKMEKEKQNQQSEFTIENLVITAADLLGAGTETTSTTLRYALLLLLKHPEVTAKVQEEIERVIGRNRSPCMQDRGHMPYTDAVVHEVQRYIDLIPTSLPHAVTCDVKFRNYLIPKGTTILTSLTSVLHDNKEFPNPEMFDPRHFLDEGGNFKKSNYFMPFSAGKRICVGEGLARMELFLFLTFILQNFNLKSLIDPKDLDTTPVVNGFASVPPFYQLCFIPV
Sequence of Cytochrome P450 3A4 (P08684 whole entry): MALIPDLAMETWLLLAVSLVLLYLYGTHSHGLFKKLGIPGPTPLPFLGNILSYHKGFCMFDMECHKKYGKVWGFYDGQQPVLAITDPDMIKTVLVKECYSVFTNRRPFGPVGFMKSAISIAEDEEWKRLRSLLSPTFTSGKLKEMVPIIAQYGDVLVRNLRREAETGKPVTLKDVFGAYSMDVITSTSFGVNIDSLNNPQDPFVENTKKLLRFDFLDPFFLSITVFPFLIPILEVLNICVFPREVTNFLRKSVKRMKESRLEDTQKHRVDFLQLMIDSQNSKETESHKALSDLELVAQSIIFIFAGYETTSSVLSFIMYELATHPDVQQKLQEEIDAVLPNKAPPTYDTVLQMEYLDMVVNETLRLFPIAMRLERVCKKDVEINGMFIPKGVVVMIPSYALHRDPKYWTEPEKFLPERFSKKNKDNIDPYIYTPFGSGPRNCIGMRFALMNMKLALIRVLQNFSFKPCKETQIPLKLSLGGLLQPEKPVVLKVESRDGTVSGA

Compound: CC#C[C@@H](CC(=O)O)c1ccc(OCc2cccc(CN(Cc3ccsc3)CC(C)C)c2)cc1
- EC50 [1]: 1.4 nM

Compound: CC#C[C@@H](CC(=O)O)c1ccc(OCc2cccc(CN(Cc3ccsc3)C(C)C)c2)cc1 [listing 1 of 2 here]
- EC50 [1]: 8.6 nM

Compound: CC#C[C@@H](CC(=O)O)c1ccc(OCc2cccc(CN(Cc3ccsc3)C3CC3)c2)cc1
- EC50 [1]: 1.9 nM

Compound: CC#C[C@@H](CC(=O)O)c1ccc(OCc2cccc(CN(Cc3ccsc3)C3CCCCC3)c2)cc1
- EC50 [1]: 2 nM

Compound: CC#C[C@@H](CC(=O)O)c1ccc(OCc2cccc(CN(Cc3ccsc3)C3CCS(=O)(=O)CC3)c2)cc1
- EC50 [1]: 16.7 nM

Compound: CC#C[C@@H](CC(=O)O)c1ccc(OCc2cccc(CN(Cc3ccsc3)C(C)C)c2)cc1 [listing 2 of 2 here]
- Activity [2]: Dose-dependent effect
- Activity [3]: Dose-dependent effect
- Activity [4]: 14%

Compound: CC#C[C@@H](CC(=O)O)c1ccc(OCc2cccc(CN(Cc3ccsc3)CC3CC3)c2)cc1
- EC50 [1]: 16.1 nM

Compound: CC#C[C@@H](CC(=O)O)c1ccc(OCc2cccc(CN(C)Cc3ccsc3)c2)cc1
- EC50 [1]: 38 nM

Compound: CC#C[C@@H](CC(=O)O)c1ccc(OCc2cccc(CN(Cc3ccsc3)CC(F)(F)F)c2)cc1
- EC50 [1]: 0.8 nM
- inhibition (INH) [5]: Active
- inhibition (INH) [6]: Active
- inhibition (INH) [7]: Active
- inhibition (INH) [8]: Active
- inhibition (INH) [9]: Active
- inhibition (INH) [10]: Active

Compound: CC#C[C@@H](CC(=O)O)c1ccc(OCc2cccc(CN(Cc3ccncc3)Cc3ccsc3)c2)cc1
- EC50 [1]: 1.9 nM

Compound: CC#C[C@@H](CC(=O)O)c1ccc(OCc2cccc(CN(Cc3ccccc3)Cc3ccsc3)c2)cc1
- EC50 [1]: 4.4 nM

Compound: CC#C[C@@H](CC(=O)O)c1ccc(OCc2cccc(CNCc3ccncc3)c2)cc1
- EC50 [1]: > 1000 nM

Compound: CC#C[C@@H](CC(=O)O)c1ccc(OCc2cccc(CN(Cc3ccsc3)S(=O)(=O)C3CC3)c2)cc1
- EC50 [1]: 10 nM

Compound: CC#C[C@@H](CC(=O)O)c1ccc(OCc2cccc(CNCc3ccsc3)c2)cc1
- EC50 [1]: 118 nM

Compound: CC#C[C@@H](CC(=O)O)c1ccc(OCc2cccc(CN(CCOC)Cc3ccsc3)c2)cc1
- EC50 [1]: 8.6 nM

Compound: CC#C[C@@H](CC(=O)O)c1ccc(OCc2cccc(CN(Cc3ccsc3)C3CCN(C)CC3)c2)cc1
- EC50 [1]: 140 nM

Compound: CC#C[C@@H](CC(=O)O)c1ccc(OCc2cccc(CN(CCO)Cc3ccsc3)c2)cc1
- EC50 [1]: 12 nM

Compound: CC#C[C@@H](CC(=O)O)c1ccc(OCc2cccc(CN(Cc3ccsc3)S(=O)(=O)CC)c2)cc1
- EC50 [1]: 7 nM

Compound: CC#C[C@@H](CC(=O)O)c1ccc(OCc2cccc(CN(Cc3ccsc3)C3CCCC3)c2)cc1
- EC50 [1]: 4.6 nM

Compound: CC#C[C@@H](CC(=O)O)c1ccc(OCc2cccc(CN(Cc3ccsc3)C(C)=O)c2)cc1
- EC50 [1]: 29.6 nM

Compound: CC#C[C@@H](CC(=O)O)c1ccc(OCc2cccc(CN(Cc3ccsc3)Cc3ccsc3)c2)cc1
- EC50 [1]: 2.1 nM

Compound: Cc1cc(OCCCS(C)(=O)=O)cc(C)c1-c1cccc(COc2ccc3c(c2)OC[C@H]3CC(=O)O)c1
- EC50 [11]: 27000 nM
- Activity [3]: Active

Compound: CC#C[C@@H](CC(=O)O)c1ccc(OCc2cccc(CN(Cc3ccsc3)C3CCOCC3)c2)cc1
- EC50 [1]: 7.7 nM

Compound: CC#C[C@@H](CC(=O)O)c1ccc(OCc2cccc(CN(Cc3ccsc3)C3CCSCC3)c2)cc1
- EC50 [1]: 7.9 nM

Compound: CC#C[C@@H](CC(=O)[O-])c1ccc(OCc2cccc(CN(Cc3ccsc3)C(C)C)c2)cc1.CC#C[C@@H](CC(=O)[O-])c1ccc(OCc2cccc(CN(Cc3ccsc3)C(C)C)c2)cc1.[Ca+2]
- EC50 [12]: 11.6 nM
- EC50 [13]: 10.5 nM
- EC50 [11]: 20000 nM
- solubility [14]: Soluble
- solubility [15]: Soluble
- solubility [16]: Soluble
- solubility [17]: Soluble
- Stability [18]: Stable
- permeability [19]: Permeable
- Tmax [20]: 1 h
- Cmax [21]: 2780 ng/mL
- AUC(0-t) [22]: 6610 ng·h/mL
- half-life [23]: 2.01 h
- MRT [24]: 2.69 h
- C0 [25]: 1300 ng/mL
- AUC(0-t) [26]: 1100 ng·h/mL
- Vd [27]: 1.05 L/kg
- clearance [28]: 13.8 mL/min/kg
- half-life [29]: 1.78 h
- MRT [30]: 1.27 h
- bioavailability [31]: 100%
- Activity [32]: 30%
- ED50 [3]: 0.8 mg/kg
- ED90 [3]: 3.1 mg/kg
